Assay results published in PubChem BioAssay (NCI).
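1) Cells in 96-well plates. 2) Compound, 48 h, 5 concentrations. 3) Linear interpolation between surrounding doses. 4) Unreached endpoint = highest concentration. Here, GI50 denotes the concentration required for 50% inhibition of growth. Definition used: TGI = concentration required for complete inhibition of growth.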

How the values were obtained:
Experiment in all cases: NCI tumour cell line growth inhibition, 48 h
U251 CNS = test system: U251 CNS
NCI-H226 lung = test system: NCI-H226 lung
SW-620 colon = test system: SW-620 colon
RPMI-8226 leukemia = test system: RPMI-8226 leukemia
COLO 205 colon = test system: COLO 205 colon
UACC-62 melanoma = test system: UACC-62 melanoma
SK-MEL-28 melanoma = test system: SK-MEL-28 melanoma
HL-60(TB) leukemia = test system: HL-60(TB) leukemia
MDA-MB-231 breast = test system: MDA-MB-231 breast
UO-31 renal = test system: UO-31 renal
M14 melanoma = test system: M14 melanoma
SK-OV-3 ovarian = test system: SK-OV-3 ovarian
DU-145 prostate = test system: DU-145 prostate
SF-268 CNS = test system: SF-268 CNS
MCF7 breast = test system: MCF7 breast
HOP-92 NSCLC = test system: HOP-92 NSCLC
HOP-62 NSCLC = test system: HOP-62 NSCLC
CCRF-CEM leukemia = test system: CCRF-CEM leukemia
HT29 colon = test system: HT29 colon
SNB-75 CNS = test system: SNB-75 CNS
NCI-H460 lung = test system: NCI-H460 lung
OVCAR-5 ovarian = test system: OVCAR-5 ovarian
OVCAR-8 ovarian = test system: OVCAR-8 ovarian
NCI-H522 lung = test system: NCI-H522 lung
PC-3 prostate = test system: PC-3 prostate
HS 578T breast = test system: HS 578T breast
NCI/ADR-RES ovarian = test system: NCI/ADR-RES ovarian
HCT-116 colon = test system: HCT-116 colon
SF-539 CNS = test system: SF-539 CNS
RXF 393 renal = test system: RXF 393 renal
LOX IMVI melanoma = test system: LOX IMVI melanoma
A549 NSCLC = test system: A549 NSCLC
HCT-15 colon = test system: HCT-15 colon
MOLT-4 leukemia = test system: MOLT-4 leukemia
ACHN renal = test system: ACHN renal
IGROV1 ovarian = test system: IGROV1 ovarian
SF-295 CNS = test system: SF-295 CNS
TK-10 renal = test system: TK-10 renal
K-562 leukemia = test system: K-562 leukemia
MDA-MB-435 = test system: MDA-MB-435
OVCAR-4 ovarian = test system: OVCAR-4 ovarian
BT-549 breast = test system: BT-549 breast
HCC-2998 colon = test system: HCC-2998 colon
SR leukemia = test system: SR leukemia
A498 renal = test system: A498 renal
SN12C renal = test system: SN12C renal
SK-MEL-2 melanoma = test system: SK-MEL-2 melanoma
SNB-19 CNS = test system: SNB-19 CNS
KM12 colon = test system: KM12 colon
SK-MEL-5 melanoma = test system: SK-MEL-5 melanoma
T-47D breast = test system: T-47D breast
786-0 renal = test system: 786-0 renal
NCI-H23 lung = test system: NCI-H23 lung
OVCAR-3 ovarian = test system: OVCAR-3 ovarian
UACC-257 melanoma = test system: UACC-257 melanoma
CAKI-1 renal = test system: CAKI-1 renal
EKVX NSCLC = test system: EKVX NSCLC

With `O=C(NC1CCCCC1)NS(=O)(=O)c1ccc(N2N=C3c4ccccc4CC3C2c2ccc(Cl)cc2)cc1` (stereo not drawn) the GI50 (U251 CNS) was 10.1 µM, the TGI (U251 CNS) was 21.7 µM and the GI50 (NCI-H226 lung) was 19.8 µM. The TGI (NCI-H226 lung) was 49.1 µM, the GI50 (SW-620 colon) was 10.3 µM and the TGI (SW-620 colon) was 24.3 µM. The GI50 (RPMI-8226 leukemia) was 3.57 µM, the TGI (RPMI-8226 leukemia) was 22.6 µM and the GI50 (COLO 205 colon) was 11.7 µM. It also gave a TGI (COLO 205 colon) of 34 µM, a GI50 (UACC-62 melanoma) of 14.9 µM and a TGI (UACC-62 melanoma) of 32.7 µM. The GI50 (SK-MEL-28 melanoma) was 29.7 µM, the TGI (SK-MEL-28 melanoma) was greater than 100 µM and the GI50 (HL-60(TB) leukemia) was 15.8 µM. It also gave a TGI (HL-60(TB) leukemia) of 36.6 µM, a GI50 (MDA-MB-231 breast) of 12.8 µM and a TGI (MDA-MB-231 breast) of 31.2 µM. It also gave a GI50 (UO-31 renal) of 20 µM, a TGI (UO-31 renal) of 40.7 µM and a GI50 (M14 melanoma) of 10.8 µM. It also gave a TGI (M14 melanoma) of 24.4 µM, a GI50 (SK-OV-3 ovarian) of 24.5 µM and a TGI (SK-OV-3 ovarian) greater than 100 µM. The GI50 (DU-145 prostate) was 5.5 µM, the TGI (DU-145 prostate) was 21.1 µM and the GI50 (SF-268 CNS) was 6.78 µM. The TGI (SF-268 CNS) was 34.9 µM, the GI50 (MCF7 breast) was 2520 nM and the TGI (MCF7 breast) was 22.2 µM. For the same molecule, the GI50 (HOP-92 NSCLC) was 10.8 µM, the TGI (HOP-92 NSCLC) was 31.5 µM and the GI50 (HOP-62 NSCLC) was 15 µM. For the same molecule, the TGI (HOP-62 NSCLC) was 30.9 µM, the GI50 (CCRF-CEM leukemia) was 3.85 µM and the TGI (CCRF-CEM leukemia) was 23.8 µM. For the same molecule, the GI50 (HT29 colon) was 32.5 µM, the TGI (HT29 colon) was greater than 100 µM and the GI50 (SNB-75 CNS) was 13.2 µM. For the same molecule, the TGI (SNB-75 CNS) was 85.9 µM, the GI50 (NCI-H460 lung) was 4.45 µM and the TGI (NCI-H460 lung) was 30.6 µM. For the same molecule, the GI50 (OVCAR-5 ovarian) was 25.5 µM, the TGI (OVCAR-5 ovarian) was 80.4 µM and the GI50 (OVCAR-8 ovarian) was 19.6 µM. For the same molecule, the TGI (OVCAR-8 ovarian) was 71.7 µM, the GI50 (NCI-H522 lung) was 9.43 µM and the TGI (NCI-H522 lung) was 30.9 µM. For the same molecule, the GI50 (PC-3 prostate) was 4.05 µM, the TGI (PC-3 prostate) was 18.8 µM and the GI50 (HS 578T breast) was 4.61 µM. The TGI (HS 578T breast) was 37.2 µM, the GI50 (NCI/ADR-RES ovarian) was 20.6 µM and the TGI (NCI/ADR-RES ovarian) was 69.6 µM. The GI50 (HCT-116 colon) was 5.15 µM, the TGI (HCT-116 colon) was 18.6 µM and the GI50 (SF-539 CNS) was 12.8 µM. For the same molecule, the TGI (SF-539 CNS) was 31.9 µM, the GI50 (RXF 393 renal) was 23.2 µM and the TGI (RXF 393 renal) was 87.5 µM. For the same molecule, the GI50 (LOX IMVI melanoma) was 10.3 µM, the TGI (LOX IMVI melanoma) was 21.9 µM and the GI50 (A549 NSCLC) was 17.9 µM. For the same molecule, the TGI (A549 NSCLC) was 47 µM, the GI50 (HCT-15 colon) was 14.5 µM and the TGI (HCT-15 colon) was 43.7 µM. It also gave a GI50 (MOLT-4 leukemia) of 4.04 µM, a TGI (MOLT-4 leukemia) of 19.4 µM and a GI50 (ACHN renal) of 13.4 µM. The TGI (ACHN renal) was 31.9 µM, the GI50 (IGROV1 ovarian) was 5.98 µM and the TGI (IGROV1 ovarian) was 25.5 µM. It also gave a GI50 (SF-295 CNS) of 15.9 µM, a TGI (SF-295 CNS) of 43.9 µM and a GI50 (TK-10 renal) of 4.5 µM. It also gave a TGI (TK-10 renal) of 19.8 µM, a GI50 (K-562 leukemia) of 6.71 µM and a TGI (K-562 leukemia) of 22.4 µM. The GI50 (MDA-MB-435) was 18.5 µM, the TGI (MDA-MB-435) was 50.3 µM and the GI50 (OVCAR-4 ovarian) was 38.5 µM. It also gave a TGI (OVCAR-4 ovarian) greater than 100 µM, a GI50 (BT-549 breast) of 7.01 µM and a TGI (BT-549 breast) of 25.2 µM. It also gave a GI50 (HCC-2998 colon) of 3.56 µM, a TGI (HCC-2998 colon) of 7.53 µM and a GI50 (SR leukemia) of 406 nM. It also gave a TGI (SR leukemia) of 1850 nM, a TGI (A498 renal) of 9.2 µM and a GI50 (SN12C renal) of 16.8 µM. The TGI (SN12C renal) was 32.6 µM, the GI50 (SK-MEL-2 melanoma) was 24.4 µM and the TGI (SK-MEL-2 melanoma) was 80.4 µM. It also gave a GI50 (SNB-19 CNS) of 21.6 µM, a TGI (SNB-19 CNS) of 97.5 µM and a GI50 (KM12 colon) of 7.9 µM. The TGI (KM12 colon) was 27.9 µM, the GI50 (SK-MEL-5 melanoma) was 3.69 µM and the TGI (SK-MEL-5 melanoma) was 18.3 µM. The GI50 (T-47D breast) was 22.6 µM, the TGI (T-47D breast) was greater than 100 µM and the GI50 (786-0 renal) was 13.3 µM. It also gave a TGI (786-0 renal) of 26.3 µM, a GI50 (NCI-H23 lung) of 12.2 µM and a TGI (NCI-H23 lung) of 36.2 µM. The GI50 (OVCAR-3 ovarian) was 18.4 µM, the TGI (OVCAR-3 ovarian) was 42 µM and the GI50 (UACC-257 melanoma) was 19.7 µM. It also gave a TGI (UACC-257 melanoma) of 53 µM, a GI50 (CAKI-1 renal) of 12.8 µM and a TGI (CAKI-1 renal) of 31.8 µM. It also gave a GI50 (EKVX NSCLC) of 5.38 µM and a TGI (EKVX NSCLC) of 22.8 µM.
